# Measured values reported in the supplement of paper PMC4314810.
# ± gives the standard deviation of the averaged measurements.
# Tested on: MCF7
# Experiment: HRG-induced Akt activation (dPAkt = log2 pAkt/Akt HRG-stimulated minus log2 pAkt/Akt basal) (log2 ratio difference); higher = stronger HRG-induced Akt(T308) phosphorylation
# Conditions: miRNA mimic concentration 10 nM; time after transfection 72 h; heregulin 10 ng/ml; stimulation time 1 h
# Outline: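 MCF7 cells ([…], 96-well plates) carrying one of 879 miRNA mimics, transfected at 10 nM final with Lipofectamine RNAiMax in two biological replicates, were stimulated after 72 h with 10 ng/ml heregulin-beta1 for 1 h or left unstimulated. Phospho-Akt(T308) and total Akt in cells fixed with 4% PFA were read by In-Cell Western on an Odyssey and corrected for column-wise fixation decay to give log2(pAkt/Akt). Heregulin-induced Akt activation is the replicate mean of stimulated minus unstimulated ratios.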
row,Sequence,HRG-induced Akt activation (log2)
1,AAAGUGCAUCCUUUUAGAGUGU,0.756 ± 0.11
2,AACGCACUUCCCUUUAGAGUGU,1.23 ± 0.16
3,CACUGUGUCCUUUCUGCGUAG,1.86 ± 0.19
4,UUCCUAUGCAUAUACUUCUUUG,1.11 ± 0.32
5,UAGGACACAUGGUCUACUUCU,1.04 ± 0.19
6,UACCACAGGGUAGAACCACGG,1.43 ± 0.074
7,UAGCUUAUCAGACUGAUGUUGA,1.73 ± 0.11
8,ACUGGACUUGGAGUCAGAAGG,1.47 ± 0.21
9,AGGUUACCCGAGCAACUUUGCAU,0.732 ± 0.16
10,GUGAACGGGCGCCAUCCCGAGG,1.9231 ± 0.00011
11,UGAGCCCCUGUGCCGCCCCCAG,2.137 ± 0.01
12,GGGCGCCUGUGAUCCCAAC,1.62 ± 0.015
13,UGAGGUAGUAGGUUGUAUGGUU,1.07 ± 0.07
14,CUUAUGCAAGAUUCCCUUCUAC,1.85 ± 0.23
15,AAGCCUGCCCGGCUCCUCGGG,1.81 ± 0.26
16,GAUUUCAGUGGAGUGAAGUUC,1.744 ± 0.0085
17,ACGCCCUUCCCCCCCUUCUUCA,1.22 ± 0.47
18,UAGCAAAAACUGCAGUUACUUU,1.86 ± 0.15
19,UCCCACGUUGUGGCCCAGCAG,1.44 ± 0.14
20,UGCUGGAUCAGUGGUUCGAGUC,2.32 ± 0.36
21,AAAAGUAAUCGCGGUUUUUGUC,1.2 ± 0.063
22,UCCCUGUUCGGGCGCCA,1.65 ± 0.52
23,UGUAAACAUCCUUGACUGGAAG,1.12 ± 0.049
24,AUUGACACUUCUGUGAGUAGA,1.55 ± 0.046

row,Sequence,HRG-induced Akt activation (log2)
1,AAAAUGGUUCCCUUUAGAGUGU,1.21 ± 0.31
2,GGCUAGCAACAGCGCUUACCU,0.933 ± 0.081
3,CCACACCGUAUCUGACACUUU,1.36 ± 0.12
4,UCCCUGAGACCCUUUAACCUGUGA,1.77 ± 0.13
5,AUCACAUUGCCAGGGAUUUCC,1.12 ± 0.24
6,GCAAAGCACACGGCCUGCAGAGA,1.27 ± 0.08
7,UGAAACAUACACGGGAAACCUC,1.0374 ± 0.0008
8,UGAGUACCGCCAUGUCUGUUGGG,1.98 ± 0.09
9,AAAGUGCUUCCUUUUAGAGGG,0.928 ± 0.12
10,UGCCCUAAAUGCCCCUUCUGGC,1.36 ± 0.27
11,CAGCAGCAAUUCAUGUUUUGAA,1.53 ± 0.33
12,AAAAGCUGGGUUGAGAGGGCGA,1.44 ± 0.13
13,UACCCAUUGCAUAUCGGAGUUG,1.78 ± 0.071
14,UGAUUGUAGCCUUUUGGAGUAGA,1.96 ± 0.18
15,AGACCUGGCCCAGACCUCAGC,1.51 ± 0.39
16,CGGCGGGGACGGCGAUUGGUC,2.14 ± 0.33
17,UGAGGUAGUAGUUUGUGCUGUU,1.12 ± 0.026
18,UAUUCAUUUAUCCCCAGCCUACA,1.59 ± 0.22
19,ACCGUGCAAAGGUAGCAUA,1.89 ± 0.11
20,AAGUGCUGUCAUAGCUGAGGUC,0.879 ± 0.58
21,CUGGAGAUAUGGAAGAGCUGUGU,1.14 ± 0.047
22,GAAGGCGCUUCCCUUUGGAGU,1.41 ± 0.095
23,CAAUCAGCAAGUAUACUGCCCU,1.93 ± 0.24
24,UGGUCUAGGAUUGUUGGAGGAG,1.61 ± 0.078

row,Sequence,HRG-induced Akt activation (log2)
1,AACCAUCGACCGUUGAGUGGAC,0.92 ± 0.14
2,AGGAGGCAGCGCUCUCAGGAC,1.54 ± 0.61
3,CCGUCGCCGCCACCCGAGCCG,1.23 ± 0.13
4,CAAAGUGCUUACAGUGCAGGUAG,1.23 ± 0.17
5,UCUAUACAGACCCUGGCUUUUC,1.14 ± 0.18
6,AUAUUACCAUUAGCUCAUCUUU,1.42 ± 0.089
7,GGCGGAGGGAAGUAGGUCCGUUGGU,1.52 ± 0.058
8,CUGUACAGGCCACUGCCUUGC,1.88 ± 0.41
9,GAGCUUAUUCAUAAAAGUGCAG,1.76 ± 0.036
10,UGUCUUGCAGGCCGUCAUGCA,1.68 ± 0.5
11,ACGGUGCUGGAUGUGGCCUUU,1.92 ± 0.082
12,UCCUUCAUUCCACCGGAGUCUG,1.66 ± 0.26
13,UGAGCUGCUGUACCAAAAU,2.107 ± 0.0035
14,CCAGUAUUAACUGUGCUGCUGA,1.55 ± 0.32
15,ACUUGGGCACUGAAACAAUGUCC,1.5 ± 0.025
16,CUGUUGCCACUAACCUCAACCU,1.07 ± 0.11
17,UCGCCUCCUCCUCUCCC,1.47 ± 0.17
18,GACCUGGACAUGUUUGUGCCCAGU,1.71 ± 0.12
19,CCCCACCUCCUCUCUCCUCAG,1.28 ± 0.38
20,UCACUGUUCAGACAGGCGGA,2.02 ± 0.07
21,AAAGUGCUGCGACAUUUGAGCGU,0.644 ± 0.26
22,UAAUUUUAUGUAUAAGCUAGU,1.79 ± 0.15
